In paper PMC4473678, “Swedish mutant APP-based BACE1 binding site peptide reduces APP β-cleavage and cerebral Aβ levels in Alzheimer’s mice” (Scientific Reports, 2015):
“Also recorded” adds a separate entry of the source.

Assays:
[1] = tested on: BACE1 in CHO/APPwt cells; assay: Co-localization with BACE1 in CHO/APPwt cells (immunocytochemistry); assay type: cell-based, Chinese hamster; conditions: biotin-labeled peptide 20 μM, 30 min, anti-BACE1 and anti-biotin staining
Description: (§1) Following application of blocking buffer, these cells were stained with mouse anti-BACE1 and anti-biotin antibodies overnight at 4 °C for immunocytochemical analysis. In order to determine the inhibitory effects of TAT-APPsweBBP on BACE1-mediated APP β-cleavage and subsequent Aβ production, both CHO/APPwt and CHO/APPswe cells were plated in 24 well-plates (3×10^5/well) and treated with TAT-APPsweBBP at 0 to 20 μM for 24 h. The cultured media were collected for Aβ and sAPPα analysis by ELISA and WB. Cell lysates were also prepared for analysis of APP amyloidogenic processing by WB.

[2] = tested on: 5XFAD mice; assay: Radial arm water maze (RAWM), 5XFAD mice; assay type: in vivo, mouse; conditions: 100 nmol/kg i.p. daily, 8 weeks, n = 10 per treatment, 5 female/5 male, listed as TAT-APPsweBBP
Description: (§2) Transgenic AD mice [5XFAD; B6SJL-Tg(APPSwFlLon,PSEN1*M146L*L286V) 6799Vas/Mmjax] at 2.5 months of age were obtained from the Jackson Laboratory (Bar Harbor, ME) and housed and maintained in the Animal Facility of College of Medicine at University of South Florida (USF). The mice at 3.5 months of age were treated with TAT-APPsweBBP, TAT peptide (100 nmol/kg in 100 μL PBS) or PBS (100 μL) daily by intraperitioneal injection (i.p.) for eight consecutive weeks. The mice were subjected to behavioral testing after 8-week treatment and then euthanized for immunohistochemical, WB and ELISA analyses. Animals were housed and maintained at USF and all experiments were in compliance with protocols approved by USF Institutional Animal Care and Use Committee. All methods were performed in accordance with relevant guidelines and regulations.
Spatial learning and memory performance was tested for each mouse using the Two-day Radial Arm Water Maze (RAWM) test[49]. The RAWM was carried out in a 100-cm circular pool with six swim alleys radiating from a common circular swim area. An escape platform was placed near the end of one arm, which forces mice to use working memory to perform this task. On day 1, mice are trained for 15 trials (5 blocks, 3 trials per block), with trials alternating between visible and hidden platform. […] Cognitive ability was assessed as the number of entry-arm errors.

[3] = tested on: brain of 5XFAD mice; assay: BBB penetration after i.p. administration (brain section confocal imaging)
Description: 5XFAD mice at 2 months of age (n = 5, female) were treated intraperitoneally with biotin-labeled TAT-APPsweBBP or APPsweBBP (100 nmol/kg) daily for 5 days and then euthanized 4 h after the last injection. Brain tissues were removed, sectioned and stained with anti-BACE1 and anti-biotin antibodies.
Fixed cell cultures and brain sections were stained with indicated antibodies and then treated with donkey anti-mouse IgG conjugated with Alexa Fluor 488 (1:200) or goat anti-rabbit IgG conjugated with Alexa Fluor 594 (1:200; Invitrogen, Carlsbad, CA). The slides were then washed, mounted with DAPI medium (Vector Laboratories, Burlingame, CA) and visualized with an Olympus FV1000 confocal microscope (Tokyo, Japan).

[4] = tested on: cortex and hippocampus of 5XFAD mice; assay: Extracellular and intracellular peptide levels in brain (WB); assay type: in vivo, mouse; conditions: i.p., *P < 0.05, **P < 0.01, listed as TAT-APPsweBBP
Description: For specific extraction of extracellular versus intracellular proteins, hemibrains were harvested and placed in 500 μl of solution containing 50 mM Tris-HCl, pH 7.6, 0.01% NP-40, 150 mM NaCl, 2 mM EDTA, 0.1% SDS, 1 mM phenylmethylsulfonyl fluoride, and protease inhibitor cocktail (Sigma) as previously describe. Soluble, extracellular proteins were collected from mechanically homogenized lysates after centrifugation for 5 min at 3000 rpm. Cytoplasmic proteins were extracted from cell pellets mechanically dissociated with a micropipettor in 500 μl of TNT buffer (50 mM Tris-HCl, pH 7.6, 150 mM NaCl, and 0.1% Triton X-100) after centrifugation for 90 min at 13,000 rpm. Insoluble material was incubated with 20 μl of 70% formic acid, mechanically dissociated with a micropipette, gently agitated for 1 h, and buffered with 380 μl of 1 M Tris-HCl, pH 8.0. Samples were centrifuged for 90 min at 13,000 rpm, and supernatants were collected for analysis.
WB analysis was performed as previously described. Briefly, the proteins from the various cell-free suspensions, cell lysates and brain homogenates were electrophoretically separated using 10% bicine/tris gel (8 M urea) for proteins less than 5 kD or 10% tricine/tris gels for larger proteins. […]

[5] = tested on: CHO/APPwt cells; assay: APP processing in CHO/APPwt cells (WB, ELISA); assay type: cell-based, Chinese hamster; conditions: 0 to 20 μM, 24 h
Description: Chinese hamster ovary (CHO) cells engineered to express human APPwt (CHO/APPwt cells) or human APPswe (CHO/APPswe cells) were kindly provided by Dr. Stefanie Hahn and Dr. Sascha Weggen (University of Heinrich Heine, Dusseldorf, Germany). As described in our recent report, these cells were cultured in Dulbecco’s modified Eagle’s medium with 10% fetal bovine serum, 1 mM sodium pyruvate and 100 U/mL of penicillin/streptomycin.
as §1
WB analysis was performed as previously described. Briefly, the proteins from the various cell-free suspensions, cell lysates and brain homogenates were electrophoretically separated using 10% bicine/tris gel (8 M urea) for proteins less than 5 kD or 10% tricine/tris gels for larger proteins. Electrophoresed proteins were transferred to polyvinylidene difluoride membranes (Bio-Rad, Richmond, CA), washed and blocked for 2 h at room temperature in Tris-buffered saline containing 5% (w/v) nonfat dry milk (TBS/NFDM). After blocking, membranes were hybridized for 2 h with various primary antibodies, washed and incubated for 1 h with the appropriate HRP-conjugated secondary antibody in TBS/NFDM. Blots were developed using the luminol reagent (Thermo Fisher Scientific, Waltham, MA).
(§3) Mouse brains were homogenized in ice-cold lysis buffer for 30 s using a Minilys tissue homogenizer (Bertin Technologies, Montigny-le-Bretonneux, France) set at high speed, allowed to stand for 15 min at 4 °C, and centrifuged at 15000 rpm for 30 min. Soluble Aβ1−40/42 species and sAPPα were directly detected in cultured cell media or brain homogenates using the Aβ1−40/42 (Invitrogen) and sAPPα ELISA kits (IBL-America, Minneapolis, MN). Detergent-insoluble total […] species were detected in brain by extracting pellets in 5 M guanidine HCl buffer, followed by a 1:20 dilution in lysis buffer.

[6] = tested on: 5XFAD mice; assay: Cerebral Aβ ELISA, 5XFAD mice; assay type: in vivo, mouse; conditions: 100 nmol/kg i.p. daily, 8 weeks, versus TAT or PBS, *P < 0.05, **P < 0.01, ***P < 0.005, listed as TAT-APPsweBBP
Description: as §2, with “All methods were performed in accordance with relevant guidelines and regulations.” left out
as §3

[7] = *P < 0.05, **P < 0.01, three independent experiments, each triplicated

Sequence: YGRKKRRQRRREISEVNLDAEFR [APPsweBBP conjugated with the membrane fusion fragment of HIV-1 Tat protein]
- co-localization with BACE1 ([1]; listed as TAT-APPsweBBP): much more strongly co-localized with BACE1 protein compared to APPsweBBP
- co-localization with BACE1 ([1]; listed as TAT-APPsweBPP): strong association with BACE1 in both cytoplasmic membrane and intracellular compartments
- RAWM entry-arm errors (learning and memory) [2]: significantly fewer errors, compared to TAT- and PBS-treated mice; also recorded: enhanced cognitive ability, as evidenced by fewer errors
- association with BACE1 in brain ([3]; 5XFAD mice, 2 months, n = 5, female, biotin-labeled peptide 100 nmol/kg i.p. daily 5 days, 4 h after last injection): more highly associates with BACE1 compared to APPsweBBP
- BBB penetration / brain distribution ([3]; 5XFAD mice, 2 months, n = 5, female, biotin-labeled peptide 100 nmol/kg i.p. daily 5 days, 4 h after last injection, confocal images, listed as TAT-APPsweBBP): highly penetrated the BBB and was detectable in both the cortical and hippocampal regions; also recorded: more permeable across the BBB; also recorded: greater distribution of TAT-APPsweBBP than APPsweBBP into cortical and hippocampal regions
- BBB penetration (Fig. S4 legend) ([3]; peripheral injection, Fig. S4): freely enters brain microvascular endothelial cells
- intracellular versus extracellular distribution in brain [4]: higher intracellular TAT-APPsweBBP distribution; also recorded: prefers to enter into cytoplasm of brain cells
- holo APP expression by WB [5]: leaving holo APP expression unaltered
- sAPPα by WB [5]: promoting
- Aβ1−40/42 by ELISA [5, 7]: significantly decreased
- sAPPα by ELISA [5, 7]: increased sAPPα levels in a dose-dependent manner
- Aβ by WB ([5]; listed as TAT-APPsweBBP): markedly decreased Aβs; also recorded: markedly inhibited
- α-CTF by WB ([5]; listed as TAT-APPsweBBP): increased α-CTF; also recorded: promoting α-CTF
- detergent-insoluble Aβ1−40/42 in brain [6]: statistically significant decreases; also recorded: significantly reduced
- detergent-soluble Aβ1−40/42 in brain [6]: statistically significant decreases; also recorded: significantly reduced
